Experimental findings from US20260083851A1 (AVILAR THERAPEUTICS, INC., priority 2022, published 2026) are described below.

The target in this experiment is T1, ASGP receptor (biotinylated ASGPR) (Homo sapiens, UniProt P07306).
T1 construct: biotin (biotinylated)
T1 sequence (P07306 1-291): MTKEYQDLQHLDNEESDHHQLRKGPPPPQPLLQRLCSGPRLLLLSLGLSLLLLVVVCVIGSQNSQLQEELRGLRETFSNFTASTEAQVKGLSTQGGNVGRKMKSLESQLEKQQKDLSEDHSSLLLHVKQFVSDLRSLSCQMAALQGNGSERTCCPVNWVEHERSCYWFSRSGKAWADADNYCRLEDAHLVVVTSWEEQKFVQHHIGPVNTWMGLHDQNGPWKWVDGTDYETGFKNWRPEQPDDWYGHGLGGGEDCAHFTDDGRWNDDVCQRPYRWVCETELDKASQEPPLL
It counts as binding. The conditions noted are these: SPR, Biacore 8K, 25° C.; Table 1A; read-out: ASGPR KD. For orientation: SPR reads the build-up and loss of mass on a sensor chip optically.
One may read the Kd as a measure of binding affinity in units of concentration. On to `O=C(NC[C@H]1OC[C@H](Nc2cncc(C(F)(F)F)n2)[C@@H](O)[C@H]1O)c1cc(C(F)(F)F)n[nH]1` [A29, N-(((2R,3R,4R,5S)-3,4-dihydroxy-5-((6-(trifluoromethyl)pyrazin-2-yl)amino)tetrahydro-2H-pyran-2-yl)methyl)-3-(trifluoromethyl)-1H-pyrazole-5-carboxamide], for which the Kd was less than 10 µM.
In the case of `O=C(O)COCC(=O)NC[C@H]1OC[C@H](Nc2cncc(C(F)(F)F)n2)[C@@H](O)[C@H]1O` [A30, 2-(2-((((2R,3R,4R,5S)-3,4-dihydroxy-5-((6-(trifluoromethyl)pyrazin-2-yl)amino)tetrahydro-2H-pyran-2-yl)methyl)amino)-2-oxoethoxy)acetic acid] it was less than 10 µM; in that of `O=C(O)c1ccc(N2CCC(CN3CCN(C[C@H]4OC[C@H](Nc5cncc(C(F)(F)F)n5)[C@@H](O)[C@H]4O)CC3)CC2)cc1` [A31, 4-(4-((4-(((2R,3R,4R,5S)-3,4-dihydroxy-5-((6-(trifluoromethyl)pyrazin-2-yl)amino)tetrahydro-2H-pyran-2-yl)methyl)piperazin-1-yl)methyl)piperidin-1-yl)benzoic acid], less than 10 µM; in that of `O=C(O)C1CCC(C(=O)NC[C@H]2OC[C@H](Nc3cncc(C(F)(F)F)n3)[C@@H](O)[C@H]2O)CC1` (stereo partly drawn) [A32, 4-((((2R,3R,4R,5S)-3,4-dihydroxy-5-((6-(trifluoromethyl)pyrazin-2-yl)amino)tetrahydro-2H-pyran-2-yl)methyl)carbamoyl)cyclohexane-1-carboxylic acid], less than 10 µM.
In the case of `O=C(O)COCCOCCOCC(=O)NC[C@H]1OC[C@H](Nc2cncc(C(F)(F)F)n2)[C@@H](O)[C@H]1O` [A33] it was less than 10 µM; in that of `O=C(O)c1ccc(C(=O)NC[C@H]2OC[C@H](Nc3cncc(C(F)(F)F)n3)[C@@H](O)[C@H]2O)cc1` [A34, 4-((((2R,3R,4R,5S)-3,4-dihydroxy-5-((6-(trifluoromethyl)pyrazin-2-yl)amino)tetrahydro-2H-pyran-2-yl)methyl)carbamoyl)benzoic acid], less than 10 µM; in that of `O=C(O)CNC(COCCC(=O)NCCOCCOCCOCCO[C@@H]1O[C@H](CO)[C@H](O)[C@H](O)[C@H]1Nc1cncc(C(F)(F)F)n1)COCCC(=O)NCCOCCOCCOCCO[C@@H]1O[C@H](CO)[C@H](O)[C@H](O)[C@H]1Nc1cncc(C(F)(F)F)n1` [A35, (1,35-bis(((2R,3R,4R,5R,6R)-4,5-dihydroxy-6-(hydroxymethyl)-3-((6-(trifluoromethyl)pyrazin-2-yl)amino)tetrahydro-2H-pyran-2-yl)oxy)-13,23-dioxo-3,6,9,16,20,27,30,33-octaoxa-12,24-diazapentatriacontan-18-yl)glycine], less than 10 µM.
For the molecule `O=C(NC[C@H]1OC[C@H](Nc2cncc(C(F)(F)F)n2)[C@@H](O)[C@H]1O)c1ccccc1` [A36, N-(((2R,3R,4R,5S)-3,4-dihydroxy-5-((6-(trifluoromethyl)pyrazin-2-yl)amino)tetrahydro-2H-pyran-2-yl)methyl)benzamide], the Kd is less than 10 µM.
On to `O[C@@H]1[C@H](O)[C@@H](Nc2cncc(C(F)(F)F)n2)CO[C@@H]1CNc1cccnn1` [A37, (2R,3R,4R,5S)-2-((pyridazin-3-ylamino)methyl)-5-((6-(trifluoromethyl)pyrazin-2-yl)amino)tetrahydro-2H-pyran-3,4-diol], for which the Kd is less than 10 µM.
The figure for `O=C(O)c1ccc(-c2ccc(C(=O)NC[C@H]3OC[C@H](Nc4cncc(C(F)(F)F)n4)[C@@H](O)[C@H]3O)cc2)cc1` [A38, 4′-((((2R,3R,4R,5S)-3,4-dihydroxy-5-((6-(trifluoromethyl)pyrazin-2-yl)amino)tetrahydro-2H-pyran-2-yl)methyl)carbamoyl)-[1,1′-biphenyl]-4-carboxylic acid] is less than 10 µM.
The figure for `O=C(NC[C@H]1OC[C@H](Nc2cncc(C(F)(F)F)n2)[C@@H](O)[C@H]1O)c1cc(F)ccn1` [A39, N-(((2R,3R,4R,5S)-3,4-dihydroxy-5-((6-(trifluoromethyl)pyrazin-2-yl)amino)tetrahydro-2H-pyran-2-yl)methyl)-4-fluoropicolinamide] is less than 10 µM; for `O=C(NC[C@H]1OC[C@H](Nc2cncc(C(F)(F)F)n2)[C@@H](O)[C@H]1O)c1ncc[nH]1` [A40, N-(((2R,3R,4R,5S)-3,4-dihydroxy-5-((6-(trifluoromethyl)pyrazin-2-yl)amino)tetrahydro-2H-pyran-2-yl)methyl)-1H-imidazole-2-carboxamide] it is less than 10 µM; for `O[C@@H]1[C@H](O)[C@@H](Nc2cncc(C(F)(F)F)n2)CO[C@@H]1CNc1ccnnc1` [A41, (2R,3R,4R,5S)-2-((pyridazin-4-ylamino)methyl)-5-((6-(trifluoromethyl)pyrazin-2-yl)amino)tetrahydro-2H-pyran-3,4-diol] it is less than 10 µM.
On to `O=C(NC[C@H]1OC[C@H](Nc2cncc(C(F)(F)F)n2)[C@@H](O)[C@H]1O)c1n[nH]c2ccccc12` [A44, N-(((2R,3R,4R,5S)-3,4-dihydroxy-5-((6-(trifluoromethyl)pyrazin-2-yl)amino)tetrahydro-2H-pyran-2-yl)methyl)-1H-indazole-3-carboxamide], for which the Kd was less than 10 µM.
Regarding `NCCCCCC(=O)NC(COCCC(=O)NCCOCCOCCOCCOC[C@H]1OC[C@H](Nc2nccc(C(F)(F)F)n2)[C@@H](O)[C@H]1O)COCCC(=O)NCCOCCOCCOCCOC[C@H]1OC[C@H](Nc2nccc(C(F)(F)F)n2)[C@@H](O)[C@H]1O` [A45, 3,3′-((2-(6-aminohexanamido)propane-1,3-diyl)bis(oxy))bis(N-(1-((2R,3R,4R,5S)-3,4-dihydroxy-5-((4-(trifluoromethyl)pyrimidin-2-yl)amino)tetrahydro-2H-pyran-2-yl)-2,5,8,11-tetraoxatridecan-13-yl)propanamide)], the Kd was less than 10 µM.
In the case of `O=C(NC[C@H]1OC[C@H](Nc2cncc(C(F)(F)F)n2)[C@@H](O)[C@H]1O)c1cnco1` [A48, N-(((2R,3R,4R,5S)-3,4-dihydroxy-5-((6-(trifluoromethyl)pyrazin-2-yl)amino)tetrahydro-2H-pyran-2-yl)methyl)oxazole-5-carboxamide], the Kd was less than 10 µM.
For `O=C(NC[C@H]1OC[C@H](Nc2cncc(C(F)(F)F)n2)[C@@H](O)[C@H]1O)c1ccn[nH]1` [A49], the Kd is less than 10 µM.
In the case of `O=C(NC[C@H]1OC[C@H](Nc2cncc(C(F)(F)F)n2)[C@@H](O)[C@H]1O)c1ncco1` [A50] it was less than 10 µM; in that of `O=C(O)c1ccc2c(c1)C(F)(F)c1cc(C(=O)NC[C@H]3OC[C@H](Nc4cncc(C(F)(F)F)n4)[C@@H](O)[C@H]3O)ccc1-2` [A52], less than 10 µM.
For `NCCOCCOCCOC[C@H]1OC[C@H](Nc2cncc(C(F)(F)F)n2)[C@@H](O)[C@H]1O` [A53, (2R,3R,4R,5S)-2-((2-(2-(2-aminoethoxy)ethoxy)ethoxy)methyl)-5-((6-(trifluoromethyl)pyrazin-2-yl)amino)tetrahydro-2H-pyran-3,4-diol], the Kd is less than 10 µM.
Consider `OC[C@H]1CC[C@H](Nc2nccc(C(F)(F)F)n2)[C@@H](O)[C@H]1O` [A54, (1R,2S,3R,6S)-3-(hydroxymethyl)-6-((4-(trifluoromethyl)pyrimidin-2-yl)amino)cyclohexane-1,2-diol], for which the Kd lay within 10 to 100 µM.
Regarding `CC(NC[C@H]1OC[C@H](Nc2cncc(C(F)(F)F)n2)[C@@H](O)[C@H]1O)c1ncccn1` (stereo partly drawn) [A55, (2R,3R,4R,5S)-2-(((1-(pyrimidin-2-yl)ethyl)amino)methyl)-5-((6-(trifluoromethyl)pyrazin-2-yl)amino)tetrahydro-2H-pyran-3,4-diol], the Kd was less than 10 µM.
With `O[C@@H]1[C@H](O)[C@@H](Nc2cncc(C(F)(F)F)n2)CO[C@@H]1COCCOCCNc1cnccn1` [A56, (2R,3R,4R,5S)-2-((2-(2-(pyrazin-2-ylamino)ethoxy)ethoxy)methyl)-5-((6-(trifluoromethyl)pyrazin-2-yl)amino)tetrahydro-2H-pyran-3,4-diol], the Kd was less than 10 µM.
Consider `NCCOCCOCC(=O)NC[C@H]1OC[C@H](Nc2cncc(C(F)(F)F)n2)[C@@H](O)[C@H]1O` [A57, 2-(2-(2-aminoethoxy)ethoxy)-N-(((2R,3R,4R,5S)-3,4-dihydroxy-5-((6-(trifluoromethyl)pyrazin-2-yl)amino)tetrahydro-2H-pyran-2-yl)methyl)acetamide], for which the Kd is less than 10 µM.
In the case of `O[C@@H]1[C@H](O)[C@@H](Nc2cncc(C(F)(F)F)n2)CO[C@@H]1COc1cnccn1` [A60, (2R,3R,4R,5S)-2-((pyrazin-2-yloxy)methyl)-5-((6-(trifluoromethyl)pyrazin-2-yl)amino)tetrahydro-2H-pyran-3,4-diol] it was less than 10 µM; in that of `O[C@@H]1[C@H](O)[C@@H](Nc2cncc(C(F)(F)F)n2)CO[C@@H]1COc1ncccn1` [A61, (2R,3R,4R,5S)-2-((pyrimidin-2-yloxy)methyl)-5-((6-(trifluoromethyl)pyrazin-2-yl)amino)tetrahydro-2H-pyran-3,4-diol], less than 10 µM; in that of `O=C(O)CN1CCC(N2CCC(C(=O)NC[C@H]3OC[C@H](Nc4cncc(C(F)(F)F)n4)[C@@H](O)[C@H]3O)CC2)CC1` [A62, 2-(4-((((2R,3R,4R,5S)-3,4-dihydroxy-5-((6-(trifluoromethyl)pyrazin-2-yl)amino)tetrahydro-2H-pyran-2-yl)methyl)carbamoyl)-[1,4′-bipiperidin]-1′-yl)acetic acid], less than 10 µM.
On to `O=C(NC[C@H]1OC[C@H](Nc2cncc(C(F)(F)F)n2)[C@@H](O)[C@H]1O)c1cccnc1` [A63, N-(((2R,3R,4R,5S)-3,4-dihydroxy-5-((6-(trifluoromethyl)pyrazin-2-yl)amino)tetrahydro-2H-pyran-2-yl)methyl)nicotinamide], for which the Kd is less than 10 µM.
With `OC[C@H]1CC[C@H](Nc2cncc(C(F)(F)F)n2)[C@@H](O)[C@H]1O` [A65, (1R,2S,3R,6S)-3-(hydroxymethyl)-6-((6-(trifluoromethyl)pyrazin-2-yl)amino)cyclohexane-1,2-diol], the Kd was less than 10 µM.
